Drawing on ChEMBL document CHEMBL3507680, “University of Dundee, Gates Library screen for HepG2 cell viability”, this text covers cytotoxicity for 99 compounds.

The series in a line: Human HepG2 cell viability assay in 384 well format. It is filed as toxicity, cell-based. Also noted: dose 125 nL, time 70.5 hour; concentration not given beside the values. Conditions: HepG2 cells, read-out: Inhibition.
Take `COc1ccccc1N1CCN(CC(=O)NC(C)c2ccco2)CC1` (centres undefined): the cytotoxicity at 70.5 h was -5.63%.
Regarding `O=C1CCc2cc(C(=O)NCc3ccc(-n4cncn4)nc3)ccc2N1`, the cytotoxicity at 70.5 h was -0.0283%.
Then `Cc1nn(C)c(N(C)C)c1CNC1CCOc2c(F)cccc21` (centres undefined), with 13.3%; and `Cn1nccc1C(=O)N1CCCC1c1ccc(C(=O)N2CCOCC2)s1` (centres undefined), with 0.297%.
As for `COCCN1CCN(Cc2c(C3CCNCC3)[nH]c3ncccc23)CC1`, the cytotoxicity at 70.5 h is -2.48%.
Then `COc1ncc(C2(O)CCN(Cc3cc(F)ccc3F)CC2)c(OC)n1`, with -5.13%; and `Nc1nc(C2CCN(C(=O)c3cncs3)CC2)cs1`, with -2.63%.
With `CC(C)c1cc(-c2cnn(C)c2C2CC2)c(C#N)c(N)n1` the figure was -0.849%; with `O=C(COc1coc(CN2CCCCC2)cc1=O)NCc1ccccc1`, -15.4%; with `Cc1ccc(C(=O)Nc2nnc(C3CC3)s2)c(-n2cnnn2)c1C`, -14.4%.
With `CC(C)Oc1ncc(C(=O)N2CCCC(C(=O)O)C2)cc1Cl` (centres undefined) the figure was -7.98%.
As for `Cc1nc[nH]c1CN1CCN(C(=O)C2(C)CC2)[C@H]2CS(=O)(=O)C[C@H]21`, the cytotoxicity at 70.5 h was -11.5%.
Turning to `CN1CCC2(CC1)CN(C(=O)c1cnccn1)Cc1ccccc12`, the cytotoxicity at 70.5 h is -5.07%.
With `Fc1ccc(CN2CCCC(c3nccnc3-n3ccnc3)C2)cc1` (centres undefined) the figure was 3.95%; with `Cc1cc(-c2ccc(=O)n(C3CCN(S(C)(=O)=O)CC3)n2)c(C)o1`, 17.2%; with `O=C(c1ccc(-n2ccnc2)nc1)N1CCCC(n2cccn2)C1` (centres undefined), 1.69%.
With `O=C1CC[C@H]2CN(Cc3ccc(Cl)s3)CC[C@H]2N1CCc1c[nH]cn1` the figure was -7.7%.
Take `CCCc1nnc(N(C)CC2CCCN(CC)C2)o1` (centres undefined): the cytotoxicity at 70.5 h worked out at 15.4%.
As for `COC(=O)C1=C(C)N=C2SCC(=O)N2C1c1cn(C)nc1C` (centres undefined), the cytotoxicity at 70.5 h is -9.65%.
Consider `O=C(Nc1ccccc1)[C@H]1O[C@H](CCN2CCNCC2)CC[C@@H]1O`, for which the cytotoxicity at 70.5 h was 0.346%.
Then `Cc1nn(C)c(Cl)c1C1CCCN1C(=O)c1ccc(O)nc1` (centres undefined), with 23.1%.
With `CC(C)c1nc(CNCC2CCCN2c2cccnn2)cs1` (centres undefined) the figure was -8.04%.
Then `Cc1cccc(-c2ncc(CNC(C)Cc3ccncc3)cn2)c1` (centres undefined), with -3.63%; and `FCCOc1cccc(NCc2c[nH]nc2-c2cccnc2)c1`, with -3.33%.
For the compound `O=C(c1cccs1)N1CC(Oc2ccccc2Cl)C1`, the cytotoxicity at 70.5 h is -0.814%.
As for `CC(C)CCNC(=O)c1cccnc1Oc1cccnc1`, the cytotoxicity at 70.5 h is -6.47%.
Then `CC(=O)N1CCO[C@@H]2CN(S(=O)(=O)c3cccnc3)C[C@@H]2C1`, with 0.618%.
With `O=C(Cc1ccc2c(c1)OCCO2)NC1CCCC1` the figure was 10.8%.
As for `COc1ccc(C(=O)O)c(OCC(=O)NC(C)c2ccccc2)c1` (centres undefined), the cytotoxicity at 70.5 h is -5.77%.
With `CS(=O)(=O)NCc1ncn2c1CN(C(=O)C1CCCO1)CCC2` (centres undefined), the cytotoxicity at 70.5 h is 0.98%.
With `CC(CC(=O)c1ccco1)NC(=O)c1ccon1` (centres undefined) the figure was -8.03%; with `Cn1nccc1C(=O)N1CCOC(Cc2cccc(C(F)(F)F)c2)C1` (centres undefined), 4.43%; with `Cc1nc(O)cc(CNC(=O)CC[C@@H]2CCCN3CCCC[C@H]23)n1`, -9.94%.
In the case of `O=C(CS(=O)(=O)Cc1ccc(F)cc1)NC1CCCCNC1=O` (centres undefined), the cytotoxicity at 70.5 h was -6.01%.
Then `Cn1cc(NC(=O)N2CCC(NS(C)(=O)=O)CC2)ccc1=O`, with 2.55%.
Then `c1cc(C[C@H]2[C@H](N3CCOCC3)CCN2Cc2ccoc2)ccn1`, with -11.4%; and `CC(NS(=O)(=O)CCc1ccccn1)c1ccccc1Br` (centres undefined), with 33.3%.
With `CC(C)(CO)CNC(=O)c1cc(-c2cc[nH]n2)n2ccccc12` the figure was -97.3%; with `Cc1nn(CC(C)C)c(N(C)C)c1CNCc1ccccc1CO`, -0.0473%; with `Cc1cc(C)c(CNC(=O)NCCOc2ccc3c(c2)CCC3)c(=O)[nH]1`, -9.44%.
As for `CCn1nc(C)c(CCNC(=O)C2CCCN(CC(N)=O)C2)c1C` (centres undefined), the cytotoxicity at 70.5 h amounted to 19.1%.
`Cc1cccnc1CNC(=O)NC(C)Cc1c(C)nn(C)c1C` (centres undefined): the cytotoxicity at 70.5 h is -5.5%.
With `c1ccc2ncc(CC3CCNCC3)cc2c1` the figure was 13.4%; with `Cn1ccc(C(=O)N2CCCC2c2ccc3c(c2)OCCO3)cc1=O` (centres undefined), -2.74%.
Then `O=C(c1ccc(F)cc1F)N(CC(F)(F)F)C1CCOCC1`, with -4.08%; and `CCc1ncc2c(n1)CN(Cc1nc(-c3ccccn3)no1)CC2`, with 33.7%.
As to `Clc1snnc1CN1CCCC1Cn1cccn1` (centres undefined), the cytotoxicity at 70.5 h is -1.24%.
Regarding `Cc1ccc(CNC(=O)NC2CCCN(c3ncccn3)C2)n1C` (centres undefined), the cytotoxicity at 70.5 h is -8.01%.
With `COc1cccc2c1OCC(CNC(=O)CCCN1CCOCC1)C2` (centres undefined) the figure was -7.84%; with `O=C(CCc1ccco1)Nc1ccc(Br)cn1`, 28.6%.
Then `CC(NC(=O)C1CCN(S(N)(=O)=O)CC1)c1cccc(OC(F)F)c1` (centres undefined), with -1.7%.
Then `Cc1n[nH]c(C2CN(Cc3ncc(C(C)C)o3)CCO2)n1` (centres undefined), with 0.362%; and `COC(=O)CCCC(=O)N1CCCCC1c1ccc(F)cc1` (centres undefined), with 2.01%.
On to `COCC1c2c(cnn2C)CCN1C(=O)c1cc(C)on1` (centres undefined), for which the cytotoxicity at 70.5 h is -0.669%.
Turning to `CCCn1c(N2CCCCC2)nc2c(C)nn(C)c2c1=O`, the cytotoxicity at 70.5 h was 15.3%.
Then `CCc1ocnc1C(=O)N1CCCC1c1noc(C2CC2)n1` (centres undefined), with -9.72%; and `O=C(C1CCOC1)N1CCC2(CC1)CN(Cc1nccs1)CCO2` (centres undefined), with -2.99%.
As to `CN(Cc1ccc2c(c1)OCO2)Cc1cscn1`, the cytotoxicity at 70.5 h turned out to be 10.1%.
Then `O=C(O)c1cccc(C2CCCN(S(=O)(=O)C3CC3)C2)c1` (centres undefined), with -10.8%; and `Cc1ncc(C(=O)N2CCCCC2c2nc3cc(F)ccc3[nH]2)c(O)n1` (centres undefined), with -20%.
Then `O=C(Cc1cccnc1)N1CCC2(CC1)CCN(C1CCOCC1)CC2`, with -5.53%; and `Cc1ccsc1CNCC1CCCN1c1cccnn1` (centres undefined), with 19.9%.
With `CCCc1cc(C(=O)NC(C)c2ccccc2)n(C)n1` (centres undefined), the cytotoxicity at 70.5 h was -2.33%.
Then `CCCc1cc(=O)[nH]c2nnc(SCC(N)=O)n12`, with 23.3%.
Then `COCc1nc(C(=O)N2CCCCC2Cn2cc(C)cn2)cs1` (centres undefined), with 16.8%; and `O=C(c1c[nH]nc1-c1cccc(F)c1)N1CCNC(c2ccccc2)C1` (centres undefined), with -9.77%.
Then `Cc1cc(C)n(CCC(=O)OCC(=O)N2CCc3sccc3C2)n1`, with -4.48%; and `CNC(=O)C(C)S(=O)(=O)Cc1csc(-c2cccs2)n1` (centres undefined), with -7.57%; and `COCCC1CN(Cc2cn(CCC(N)=O)c3ccccc23)CCO1` (centres undefined), with -5.24%.
As to `CO[C@@H]1CCN(S(=O)(=O)N(C)C)[C@@H]2CN(Cc3cccnc3)C[C@@H]21`, the cytotoxicity at 70.5 h was -4.13%.
`CC(NC(=O)N1CCN(CCc2ccccc2)CC1)c1nncn1C` (centres undefined): the cytotoxicity at 70.5 h is -11%.
With `CC(C)(N)c1cn([C@@H]2c3ccccc3C3(CCNCC3)[C@H]2O)nn1` the figure was -4.25%; with `CCOCCS(=O)(=O)c1nnc(NCCOC)s1`, 23.1%; with `CN1CCN(CCCNC(=O)c2cc(Cl)c3c(c2)OCO3)CC1`, -6.03%.
Then `Cc1ccc(C)c(C(O)Cn2cc(Cl)c(=O)[nH]c2=O)c1` (centres undefined), with 13.1%; and `N#CC1(C(=O)N2CCOC(c3ccc(F)cc3)C2)CCCCC1` (centres undefined), with -9.88%.
With `Cc1nn2cccnc2c1C(=O)N1CCCC(n2ccnc2)C1` (centres undefined) the figure was -4.78%; with `O=C1NCCCCC1Sc1n[nH]c(=O)n1C1CC1` (centres undefined), 15.9%.
Turning to `Cc1cc(-c2ccccc2C(=O)O)nc(C2CCCCN2C)n1` (centres undefined), the cytotoxicity at 70.5 h was -6.42%.
In the case of `c1cc(CN2CCCC3(COCCN(Cc4c[nH]nn4)C3)C2)cs1` (centres undefined), the cytotoxicity at 70.5 h was -2.64%.
Then `Cn1cc(CN2C[C@@H]3OCCN(c4ncccn4)[C@@H]3C2)cn1`, with 1.07%.
As to `CN(C)C(CNC(=O)NCCS(C)(=O)=O)c1ccco1` (centres undefined), the cytotoxicity at 70.5 h was -4.23%.
With `CN1CC2(CCN(C(=O)Cc3ccccn3)CC2)OCC1=O` the figure was -5.16%; with `Cc1ccc(CN2CC[C@@H]3[C@@H](CO[C@H]3CN3CCN(C)CC3)C2)cc1`, -0.515%.
With `Cc1nn(CC(=O)Nc2ccc(F)cc2)c(N)c1C#N` the figure was -0.498%; with `CC(C)C(=O)N1CCC(NCc2c(C(C)C)nn(C)c2N(C)C)CC1`, -5.89%.
Then `CC(=O)N1CCC(c2nccnc2Nc2ncc(C)s2)CC1`, with -10.6%; and `Cc1cc(C(=O)Nc2ccn(CCCN3CCCC3)n2)c(C)o1`, with -0.537%.
Take `CNc1ccnc(N2CC[C@@](O)(C3CCOCC3)[C@H](C)C2)n1`: the cytotoxicity at 70.5 h is -7.76%.
With `Cc1ccc(OCCN(C)Cc2ccc(S(=O)(=O)N(C)C)o2)cc1`, the cytotoxicity at 70.5 h was -5.02%.
With `Cc1cc2nc(C(C)C)cc(N3CCN(c4ccc(O)cc4)CC3)n2n1` the figure was -1.87%; with `COC(=O)C(C)(C)NC(=O)C1CC(=O)N(CC(C)C)C1` (centres undefined), -0.314%.
With `NC(=O)N1CC[C@H](O)[C@@H]1Cc1cccnc1` the figure was -12.6%; with `O=C(c1ccno1)N1CC(c2nc(-c3ccco3)no2)C1`, -1.91%.
Then `Cc1nn(C)c(C)c1C1COCCN1C(=O)c1cnc(N)c(Cl)c1` (centres undefined), with -3.52%; and `Cn1nc2c(cc1=O)CN(c1ncnc3ccsc13)CC2`, with 3.58%.
As to `CCc1nnc2n1CCN(Cc1csc(-c3ccsc3)n1)C2`, the cytotoxicity at 70.5 h was -8.3%.
With `CCn1c(C)cc(C(=O)N2CCC(NC(=O)c3cc(C)no3)CC2)c1C`, the cytotoxicity at 70.5 h is -112%.
Then `Cc1cncc(C2CCCN2CCO)n1` (centres undefined), with -9.94%.
